From patent US20240270715A1, “INHIBITORS OF TRANSGLUTAMINASES” (ZEDIRA GMBH, priority 2021, published 2024)

Columns and labels:
[1] = Log D by shake flask method (octanol / PBS pH 7.4, HPLC); assay type: physicochemical; settings: octanol / PBS pH 7.4, shake flask; read-out: logD
Method in brief: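 Log D is derived by HPLC measurement of how the compound distributes between octanol and pH 7.4 phosphate-buffered saline in a shake flask.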

[2] = Caco-2 permeability assay (CacoReady kit); assay type: in vitro ADME; settings: human
Method in brief: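 Caco-2 monolayer barrier, commercial ready-to-use kit, manufacturer protocol. Read-out: Papp.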

[3] = molecular target: T1, recombinant human transglutaminase 2 (Homo sapiens, UniProt P21980); test: Transglutaminase assay: incorporation of dansylcadaverine into dimethylcasein (DCC-assay); assay type: biochemical; settings: recombinant human TG2 10 nM, dansylcadaverine/dimethylcasein; read-out: IC50 TG2
T1 sequence (P21980 1-687): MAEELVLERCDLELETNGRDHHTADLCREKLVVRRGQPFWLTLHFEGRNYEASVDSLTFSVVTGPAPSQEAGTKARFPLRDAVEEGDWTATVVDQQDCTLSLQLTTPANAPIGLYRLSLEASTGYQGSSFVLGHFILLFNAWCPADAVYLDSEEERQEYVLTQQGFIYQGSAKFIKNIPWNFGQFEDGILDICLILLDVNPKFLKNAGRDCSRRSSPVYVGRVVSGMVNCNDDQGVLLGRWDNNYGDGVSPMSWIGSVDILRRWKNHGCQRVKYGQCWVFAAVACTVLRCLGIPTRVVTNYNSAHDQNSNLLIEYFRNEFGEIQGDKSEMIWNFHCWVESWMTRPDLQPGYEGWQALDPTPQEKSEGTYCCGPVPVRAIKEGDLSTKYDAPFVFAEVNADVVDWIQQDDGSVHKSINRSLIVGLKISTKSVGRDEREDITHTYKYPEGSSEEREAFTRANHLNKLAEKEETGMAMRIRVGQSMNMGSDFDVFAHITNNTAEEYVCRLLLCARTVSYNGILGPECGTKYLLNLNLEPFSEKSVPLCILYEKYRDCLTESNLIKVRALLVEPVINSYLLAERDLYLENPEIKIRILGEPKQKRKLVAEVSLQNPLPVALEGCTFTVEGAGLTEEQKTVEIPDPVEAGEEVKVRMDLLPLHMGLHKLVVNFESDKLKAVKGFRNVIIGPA
Method in brief: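 Recombinant human TG2 (10 nM final) incorporates dansylcadaverine (16.7 μM) into N,N-dimethylcasein (4 μM) in Tris-HCl buffer, pH 8.0, with 10 mM CaCl2 and 10 mM glutathione. Fluorescence (λex 330, λem 500 nm) followed 30 min. The slope between 20–30 min gives activity versus DMSO control, and IC50 comes from the concentration–activity plot.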

Compound	logD [1]	Papp [2] [×10⁻⁶ cm/s]	IC50 [3] [nM]
CCNC(=O)C(=O)CC[C@H](NC(=O)c1cccnn1)C(=O)Nc1cccn(CC(=O)N[C@@H]2C[C@@H]3C=C[C@H]2C3)c1=O [Compound I-73, (S)-N1-(1-(2-((1R,2R,4R)-bicyclo[2.2.1]hept-5-en-2-ylamino)-2-oxoethyl)-2-oxo-1,2-dihydropyridin-3-yl)-N6-ethyl-5-oxo-2-(pyridazine-3-carboxamido)hexanediamide]	< 1	< 1	150 to 600
CCNC(=O)C(=O)CC[C@H](NC(=O)C1CN2CCC1CC2)C(=O)Nc1cccn(CC(=O)NC2(C#N)C3CC4CC(C3)CC2C4)c1=O (stereo partly drawn) [Compound I-63, (S)-N1-ethyl-N6-(1-(2-(2-carbonitrileadamantane-2-amino)-2-oxoethyl)-2-oxo-1,2-dihydropyridin-3-yl)-2-oxo-5-((3S,4R)-quinuclidine-3-carboxamido)hexanediamide]	< 1	< 1	150 to 600
CCNC(=O)C(=O)CC[C@H](NC(=O)c1sc(-c2ccccc2)nc1C)C(=O)Nc1cccn(CC(=O)NC2C3CC4CC(C3)CC2C4)c1=O (stereo partly drawn) [Compound I-42, (S)-N1-ethyl-N6-(1-(2-(2-adamantylamino)-2-oxoethyl)-2-oxo-1,2-dihydropyridin-3-yl)-5-(4-methyl-2-phenylthiazole-5-carboxamido)-2-oxohexanediamide]	3 to 5	1 to 10	150 to 600
CCNC(=O)C(=O)CC[C@H](NC(=O)c1cncn1C)C(=O)Nc1cccn(CC(=O)NC23CC4CC(CC(Br)(C4)C2)C3)c1=O [Compound I-10, (S)-N1-ethyl-N6-(1-(2-(3-bromoadamantane-1-amino)-2-oxoethyl)-2-oxo-1,2-dihydropyridin-3-yl)-5-(1-methyl-1H-imidazole-5-carboxamido)-2-oxohexanediamide]	< 1	< 1	150 to 600
CCNC(=O)C(=O)CC[C@H](NC(=O)[C@@H]1CN2CCN1CC2)C(=O)Nc1cccn(CC(=O)NC2C3CC4CC(C3)CC2C4)c1=O (stereo partly drawn) [Compound I-94, (S)-2-((S)-1,4-diazabicyclo[2.2.2]octane-2-carboxamido)-N6-ethyl-N1-(1-(2-(2-adamantylamino)-2-oxoethyl)-2-oxo-1,2-dihydropyridin-3-yl)-5-oxohexanediamide]	1 to 3	< 1	600 to 3500

The next lines start with the values.

logD [1]	Papp [2] [×10⁻⁶ cm/s]	IC50 [3] [nM]	Compound
< 1	< 1	150 to 600	CCNC(=O)C(=O)CC[C@H](NC(=O)c1cncnc1C)C(=O)Nc1cccn(CC(=O)NC2C3CC4CC2CC(C(=O)O)(C4)C3)c1=O (stereo partly drawn) [Compound I-92, (S)-N1-ethyl-N6-(1-(2-(5-carboxy-2-aminoadamantane)-2-oxoethyl)-2-oxo-1,2-dihydropyridin-3-yl)-5-(4-methylpyrimidine-5-carboxamido)-2-oxohexanediamide]
1 to 3	< 1	600 to 3500	CCNC(=O)C(=O)CC[C@H](NC(=O)c1cncn1C)C(=O)Nc1cccn(CC(=O)N(C)C23CC4CC(CC(C4)C2)C3)c1=O [Compound I-3, (S)-N1-ethyl-N6-(1-(2-(1-adamantyl(methyl)amino)-2-oxoethyl)-2-oxo-1,2-dihydropyridin-3-yl)-5-(1-methyl-1H-imidazole-5-carboxamido)-2-oxohexanediamide]
1 to 3	1 to 10	150 to 600	CCNC(=O)C(=O)CC[C@H](NC(=O)c1nc(Cl)sc1Cl)C(=O)Nc1cccn(CC(=O)NC2C3CC4CC(C3)CC2C4)c1=O (stereo partly drawn) [Compound I-48, (S)-2-(2,5-dichlorothiazole-4-carboxamido)-N6-ethyl-N1-(1-(2-(2-adamantylamino)-2-oxoethyl)-2-oxo-1,2-dihydropyridin-3-yl)-5-oxohexanediamide]
< 1	< 1	150 to 600	CCNC(=O)C(=O)CC[C@H](NC(=O)c1csnn1)C(=O)Nc1cccn(CC(=O)NC23CC(C2)C3)c1=O [Compound I-117, (S)-N1-(1-(2-(bicyclo[1.1.1]pentan-1-ylamino)-2-oxoethyl)-2-oxo-1,2-dihydropyridin-3-yl)-N6-ethyl-5-oxo-2-(1,2,3-thiadiazole-4-carboxamido)hexanediamide]
